# Results from patent publication US12195427B2, “MASP-2 inhibitors and methods of use” (priority 2018, dated 2025).
# Structures can show the parent of a compound that is named as a salt.
# Molecular target: MASP-2 CCP2-SP (Homo sapiens (Human), UniProt O00187)
# Experiment: MASP-2 co-crystallization, X-ray crystallography and structure analysis (H-bonds, van der Waals contacts);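 as to Ligand-pharmacophore element distance, pharmacophore element C2: distance from averaged pharmacophore element to bound ligand; missing value means element absent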;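 as to Ligand-pharmacophore element distance, pharmacophore element C3: distance from averaged pharmacophore element to bound ligand; missing value means element absent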;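 as to Ligand-pharmacophore element distance, pharmacophore element C4: distance from averaged pharmacophore element to bound ligand; missing value means element absent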;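 as to Ligand-pharmacophore element distance, pharmacophore element C5: distance from averaged pharmacophore element to bound ligand; missing value means element absent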
# Parameters: van der Waals contact distance, MASP-2 HIS 483 atom CD2 / van der Waals contact distance, MASP-2 HIS 483 atom NE2 / van der Waals contact distance, SER 654 C to compound atom / van der Waals contact distance, SER 654 O to compound atom / van der Waals contact distance, TRP 655 C to compound atom / van der Waals contact distance, MASP-2 GLY 528 atom CA / van der Waals contact distance TRP 655 atom CZ3 / van der Waals contact distance TRP 655 atom N / van der Waals contact distance TRP 655 atom CE3 / van der Waals contact distance GLY 656 atom C / van der Waals contact distance GLY 656 atom CA / van der Waals contact distance GLY 656 atom O / van der Waals contact distance, MASP-2 TYR 607 atom CD1 / van der Waals contact distance, MASP-2 PRO 606 atom O / d(C3,CA1) / d(CA1,N1)2 / d(H4,O1) / d(H4,O2) / d(O1,O2) / d(CA1,O2) / d(CA6,O1) / d(CA6,O2) / d(CA1,C5) / d(O2,H3) / d(N2,C2) / d(CA5,N2) / d(N2,C4) / d(N2,C6) / d(N2,CA3) / d(N2,O3) / d(O4,H2): unit not given beside the values
# Details: for H-bond distance to MASP-2 ASP 627 atom OD2: ASP 627 OD2; for H-bond distance to MASP-2 GLY 656 atom N: GLY 656 N; for H-bond distance to MASP-2 SER 628 atom O: SER 628 O; for H-bond distance to MASP-2 SER 654 atom O: SER 654 O; for H-bond distance to MASP-2 SER 657 atom O: SER 657 O; for van der Waals contact distance, MASP-2 HIS 483 atom CD2 / van der Waals contact distance, MASP-2 HIS 483 atom NE2: Table A2-1; for van der Waals contact distance, VAL 653 CG1 to compound atom: Table A2-11; for van der Waals contact distance, SER 654 O to compound atom / van der Waals contact distance, TRP 655 CA to compound atom: Table A2-12; for van der Waals contact distance TRP 655 atom CE3 / van der Waals contact distance TRP 655 atom CZ3: Table A2-13; for van der Waals contact distance TRP 655 atom CE3: MASP-2 TRP 655 CE3, compound atom in line below; for van der Waals contact distance TRP 655 atom CZ3: MASP-2 TRP 655 CZ3; for Ligand-pharmacophore element distance, pharmacophore element C2 / Ligand-pharmacophore element distance, pharmacophore element C3 / Ligand-pharmacophore element distance, pharmacophore element C4 / Ligand-pharmacophore element distance, pharmacophore element C5 / Ligand-pharmacophore element distance, pharmacophore element C6 / Ligand-pharmacophore element distance, pharmacophore element C7 / Ligand-pharmacophore element distance, pharmacophore element CA1 / Ligand-pharmacophore element distance, pharmacophore element CA2 / Ligand-pharmacophore element distance, pharmacophore element CA3 / Ligand-pharmacophore element distance, pharmacophore element CA4 / Ligand-pharmacophore element distance, pharmacophore element CA5 / Ligand-pharmacophore element distance, pharmacophore element CA6: Table A4-1; for d(C3,CA1) / d(CA1,N1)2 / d(CA1,O1) / d(CA1,O2) / d(H4,O1) / d(H4,O2) / d(O1,O2): Table A5-1 pharmacophore: distance between elements, S2/S1 region; for a(C3, CA1, O1) / a(CA1, O1, O2) / a(O1, O2, H4) / a(N1, CA1, O1) b): Table A6-1 pharmacophore angle; for a(N1, CA1, O1) b): Methyl-amino-pyridine compounds
# Procedure, shortened: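 Contacts and H-bonds come from partially refined soaked-crystal structures of recombinant human CCP2-SP made in E. coli, solved by molecular replacement against 1Q3X fragments. Where several ligand poses appeared, only one was analysed; listed nonbonded contacts may include possible H-bond pairings.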
# [1] = Table A2-7: SER 628 (CB, O, OG)
# [2] = Table A5-2 pharmacophore distance, S3/S4 region
# [3] = Table A7-1, between pharmacophore elements of the bound compound
# [4] = Table A7-2, between pharmacophore elements of the bound compound
# Chain of MASP-2 CCP2-SP (O00187 445-686): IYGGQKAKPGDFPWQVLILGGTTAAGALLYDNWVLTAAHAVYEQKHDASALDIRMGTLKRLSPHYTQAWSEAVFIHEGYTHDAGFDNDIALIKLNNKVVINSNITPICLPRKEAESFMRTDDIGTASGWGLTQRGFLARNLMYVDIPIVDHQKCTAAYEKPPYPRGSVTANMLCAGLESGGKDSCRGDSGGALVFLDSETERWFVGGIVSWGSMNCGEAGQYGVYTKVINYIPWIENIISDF
# Chain of MASP-2 CCP2-SP (O00187 364-432 partner): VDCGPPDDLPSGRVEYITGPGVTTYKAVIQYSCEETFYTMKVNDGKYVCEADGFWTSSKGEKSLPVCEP
structure (smiles),measurement,setting,value
"Cc1nc(N)ccc1CNC(=O)[C@H](C)NC(=O)c1cc(Cc2ccccc2)n[nH]1 [compound 1367, (S)—N-(1-(((6-Amino-2-methylpyridin-3-yl)methyl)amino)-1-oxopropan-2-yl)-3-benzyl-1H-pyrazole-5-carboxamide]",H-bond distance to MASP-2 ASP 627 atom OD2,Table A1 (H-Bonds),3.15
same,H-bond distance to MASP-2 GLY 656 atom N,Table A1 (H-Bonds),3.15
same,H-bond distance to MASP-2 GLY 656 atom O,"Table A1 (H-Bonds), GLY 656 O",2.77
same,H-bond distance to MASP-2 SER 628 atom O,Table A1 (H-Bonds),3.15
same,H-bond distance to MASP-2 SER 654 atom O,Table A1 (H-Bonds),3.08
same,H-bond distance to MASP-2 SER 657 atom O,Table A1 (H-Bonds),2.88
same,"van der Waals contact distance, MASP-2 HIS 483 atom CD2",,3.71
same,"van der Waals contact distance, MASP-2 HIS 483 atom NE2",,3.59
same,"van der Waals contact distance, MASP-2 PHE 529 atom CD2",Table A2-3,3.8
same,"van der Waals contact distance, MASP-2 amino acid atom to compound atom","Table A2-6: SER 611 (CB, OG), ASP 627 (CG, OD1, OD2), SER 628 (C, CA)",3.71
same,"van der Waals contact distance, MASP-2 amino acid atom to compound atom",[1],3.56
same,"van der Waals contact distance, MASP-2 amino acid atom to compound atom","Table A2-9, ARG 630, AA atoms CG, CZ",3.86
same,"van der Waals contact distance, MASP-2 amino acid atom to compound atom","Table A2-9 second part, ARG 630, AA atoms N, NE, NH1",3.8
same,"van der Waals contact distance, VAL 653 CG1 to compound atom",,3.35
same,"van der Waals contact distance, SER 654 O to compound atom",,3.87
same,"van der Waals contact distance, TRP 655 CA to compound atom",,3.29
same,van der Waals contact distance TRP 655 atom CE3,,3.89
same,van der Waals contact distance TRP 655 atom CZ3,,3.86
same,"Ligand-pharmacophore element distance, pharmacophore element C2",,0
same,"Ligand-pharmacophore element distance, pharmacophore element C3",,0.13
same,"Ligand-pharmacophore element distance, pharmacophore element C4",,0
same,"Ligand-pharmacophore element distance, pharmacophore element C5",,0
same,"Ligand-pharmacophore element distance, pharmacophore element C6",,0
same,"Ligand-pharmacophore element distance, pharmacophore element C7",,0
same,"Ligand-pharmacophore element distance, pharmacophore element CA1",,0.5
same,"Ligand-pharmacophore element distance, pharmacophore element CA2",,0.57
same,"Ligand-pharmacophore element distance, pharmacophore element CA3",,0
same,"Ligand-pharmacophore element distance, pharmacophore element CA4",,0
same,"Ligand-pharmacophore element distance, pharmacophore element CA5",,3.27
same,"Ligand-pharmacophore element distance, pharmacophore element CA6",,0
same,"d(C3,CA1)",,2.85
same,"d(CA1,N1)2",,1.39
same,"d(CA1,O1)",,4.35
same,"d(CA1,O2)",,5.37
same,"d(H4,O1)",,4.37
same,"d(H4,O2)",,5.63
same,"d(O1,O2)",,4.72
same,"d(O2,H3)",[2],2.68
same,"a(C3, CA1, O1)",,149.67
same,"a(CA1, O1, O2)",,129.48
same,"a(O1, O2, H4)",,125.36
same,"a(N1, CA1, O1) b)",,173.97
same,"a(O1, O2, H3)",Table A6-2 pharmacophore angle,107.78
same,"Pharmacophore torsion angle a(C3, CA1, O1, H4)",[3],23.21
same,"Pharmacophore torsion angle a(H4, O1, O2, H3)",[3],42.45
same,"Pharmacophore torsion angle a(N1, CA1, O1, H4)",[3],1.25
same,"Pharmacophore torsion angle a(O1, H4, O2, CA1)",[3],−85.54
"CC(=O)Nc1ccc(CCN[C@H](CCc2ccccc2)C(=O)N[C@@H](C)C(=O)NCc2ccc(N)nc2C)cc1 [compound 1368, (R)-2-((4-Acetamidophenethyl)amino)-N—((S)-1-(((6-amino-2-methylpyridin-3-yl)methyl)amino)-1-oxopropan-2-yl)-4-phenylbutanamide Dihydrochloride]",H-bond distance to MASP-2 ASP 627 atom OD2,Table A1 (H-Bonds),3.24
same,H-bond distance to MASP-2 GLY 656 atom N,Table A1 (H-Bonds),3.07
same,H-bond distance to MASP-2 PRO 606 atom O,"Table A1 (H-Bonds), PRO 606 O",3.21
same,H-bond distance to MASP-2 SER 628 atom O,Table A1 (H-Bonds),3.16
same,H-bond distance to MASP-2 SER 654 atom O,Table A1 (H-Bonds),3.04
same,H-bond distance to MASP-2 SER 657 atom O,Table A1 (H-Bonds),2.94
same,"van der Waals contact distance, MASP-2 HIS 483 atom CD2",,3.86
same,"van der Waals contact distance, MASP-2 HIS 483 atom NE2",,3.67
same,"van der Waals contact distance, MASP-2 PHE 529 atom CE2",Table A2-3,3.79
same,"van der Waals contact distance, MASP-2 PHE 529 atom CZ",Table A2-3,3.71
same,"van der Waals contact distance, MASP-2 PRO 606 atom CB",Table A2-4,3.6
same,"van der Waals contact distance, MASP-2 PRO 606 atom O",Table A2-4,3.75
same,"van der Waals contact distance, MASP-2 amino acid atom to compound atom",[1],3.63
same,"van der Waals contact distance, VAL 653 CG1 to compound atom",,3.32
same,"van der Waals contact distance, SER 654 O to compound atom",,3.85
same,"van der Waals contact distance, TRP 655 CA to compound atom",,3.29
same,van der Waals contact distance TRP 655 atom CE3,,3.52
same,van der Waals contact distance TRP 655 atom CZ3,,3.87
same,"Ligand-pharmacophore element distance, pharmacophore element C2",,0
same,"Ligand-pharmacophore element distance, pharmacophore element C3",,0.16
same,"Ligand-pharmacophore element distance, pharmacophore element C4",,0
same,"Ligand-pharmacophore element distance, pharmacophore element C5",,0
same,"Ligand-pharmacophore element distance, pharmacophore element C6",,0
same,"Ligand-pharmacophore element distance, pharmacophore element C7",,0
same,"Ligand-pharmacophore element distance, pharmacophore element CA1",,0.62
same,"Ligand-pharmacophore element distance, pharmacophore element CA2",,0.95
same,"Ligand-pharmacophore element distance, pharmacophore element CA3",,0
same,"Ligand-pharmacophore element distance, pharmacophore element CA4",,0
same,"Ligand-pharmacophore element distance, pharmacophore element CA5",,2.23
same,"Ligand-pharmacophore element distance, pharmacophore element CA6",,0
same,"d(C3,CA1)",,2.86
same,"d(CA1,N1)2",,1.39
same,"d(CA1,O1)",,4.30
same,"d(CA1,O2)",,8.92
same,"d(H4,O1)",,4.34
same,"d(H4,O2)",,8.84
same,"d(O1,O2)",,7.07
same,"d(CA5,N2)",[2],4.47
same,"d(N2,CA2)",[2],6.36
same,"d(O2,H3)",[2],7.79
same,"d(O2,N2)",[2],4.30
same,"a(C3, CA1, O1)",,149.59
same,"a(CA1, O1, O2)",,151.69
same,"a(O1, O2, H4)",,127.75
same,"a(N1, CA1, O1) b)",,173.57
same,"a(O1, O2, H3)",Table A6-2 pharmacophore angle,119.72
same,"a(O1, O2, N2)",Table A6-2 pharmacophore angle,74.03
same,"a(O2, N2, CA2)",Table A6-2 pharmacophore angle,145.05
same,"Pharmacophore torsion angle a(C3, CA1, O1, H4)",[3],22.95
same,"Pharmacophore torsion angle a(H4, O1, O2, H3)",[3],40.86
same,"Pharmacophore torsion angle a(H4, O1, O2, N2)",[3],68.19
same,"Pharmacophore torsion angle a(N1, CA1, O1, H4)",[3],−2.26
same,"Pharmacophore torsion angle a(O1, H4, O2, CA1)",[3],−74.89
same,"Pharmacophore torsion angle a(O1, O2, N2, CA2)",[4],−100.57
same,"Pharmacophore torsion angle a(O1, O2, N2, CA5)",[4],124.36
